# Paper PMC9229255, “New Cladiellin-Type Diterpenoids from the South China Sea Soft Coral Cladiella krempfi: Structures and Molecular Docking Analysis in EGFRs” (Marine Drugs, 2022)
# Columns and labels:
# [1] = target: T1, EGFR (Homo sapiens, UniProt P00533); assay: EGFR activity assay (kinase inhibition); type: biochemical; conditions: concentration 20000 nM; read-out: EGFR inhibitory data, Mean (percentage of inhibition)
# Procedure: Six compounds were screened on EGFRs using staurosporine obtained from MedChemExpress (Cat. No. HY-15141; Lot. No. 41248) as the reference compound. In the bioassay for the EGFRs, testing kinases were performed in 1× kinase base buffer containing 50 mM HEPES (pH 7.5) and 0.0015% Brij-35, and stop buffer containing 100 mM HEPES (pH 7.5), 0.0015% Brij-35, 0.2% Coating Reagent #3, and 50 mM EDTA. For the compound preparing part, compounds were diluted to 50X of the final desired highest inhibitor concentration in the reaction by 100% DMSO, and 100 µL of the compound dilution was transferred to a well in a 96-well plate. Additionally, 100 µL of 100% DMSO was added to two empty wells for a no-compound control and a no-enzyme control in the same 96-well plate, which was marked as the source plate. […]. The compounds were mixed in an intermediate plate for 10 min on a shaker. For the assay plate, 5 µL of each well from the 96-well intermediate plate was transferred to a 384-well plate in duplicates. For the kinase reaction, 2.5× enzyme solution and 2.5× peptide solution were prepared. Moreover, 5 µL of compound were settled in the assay plate with 10% DMSO. Additionally, 10 µL of 2.5× enzyme solution was added to each well of the 384-well assay plate that was incubated at room temperature for 10 min. Then, 10 µL of 2.5× peptide solution was added to each well of the 384-well that was incubated at 28 °C for 30 min and stopped by 25 µL stop buffer. The percentage of inhibition was estimated using max-conversion divided by the max-min, and inhibition values were converted by convert conversion values from the caliper program. IC50 values were obtained from fitting the data in the XLfit excel add-in version 4.3.1.
# [2] = target: T1, EGFR; parameters: method as in PMID 27940262; conditions: read-out: EGFR inhibitory activity IC50; cited from earlier work
# [3] = tested on: mouse lymphocytic leukemia L1210 cells; parameters: method as in doi:10.1021/jo00269a027; conditions: as low as; cited from earlier work
# T1 sequence (P00533 25-1210): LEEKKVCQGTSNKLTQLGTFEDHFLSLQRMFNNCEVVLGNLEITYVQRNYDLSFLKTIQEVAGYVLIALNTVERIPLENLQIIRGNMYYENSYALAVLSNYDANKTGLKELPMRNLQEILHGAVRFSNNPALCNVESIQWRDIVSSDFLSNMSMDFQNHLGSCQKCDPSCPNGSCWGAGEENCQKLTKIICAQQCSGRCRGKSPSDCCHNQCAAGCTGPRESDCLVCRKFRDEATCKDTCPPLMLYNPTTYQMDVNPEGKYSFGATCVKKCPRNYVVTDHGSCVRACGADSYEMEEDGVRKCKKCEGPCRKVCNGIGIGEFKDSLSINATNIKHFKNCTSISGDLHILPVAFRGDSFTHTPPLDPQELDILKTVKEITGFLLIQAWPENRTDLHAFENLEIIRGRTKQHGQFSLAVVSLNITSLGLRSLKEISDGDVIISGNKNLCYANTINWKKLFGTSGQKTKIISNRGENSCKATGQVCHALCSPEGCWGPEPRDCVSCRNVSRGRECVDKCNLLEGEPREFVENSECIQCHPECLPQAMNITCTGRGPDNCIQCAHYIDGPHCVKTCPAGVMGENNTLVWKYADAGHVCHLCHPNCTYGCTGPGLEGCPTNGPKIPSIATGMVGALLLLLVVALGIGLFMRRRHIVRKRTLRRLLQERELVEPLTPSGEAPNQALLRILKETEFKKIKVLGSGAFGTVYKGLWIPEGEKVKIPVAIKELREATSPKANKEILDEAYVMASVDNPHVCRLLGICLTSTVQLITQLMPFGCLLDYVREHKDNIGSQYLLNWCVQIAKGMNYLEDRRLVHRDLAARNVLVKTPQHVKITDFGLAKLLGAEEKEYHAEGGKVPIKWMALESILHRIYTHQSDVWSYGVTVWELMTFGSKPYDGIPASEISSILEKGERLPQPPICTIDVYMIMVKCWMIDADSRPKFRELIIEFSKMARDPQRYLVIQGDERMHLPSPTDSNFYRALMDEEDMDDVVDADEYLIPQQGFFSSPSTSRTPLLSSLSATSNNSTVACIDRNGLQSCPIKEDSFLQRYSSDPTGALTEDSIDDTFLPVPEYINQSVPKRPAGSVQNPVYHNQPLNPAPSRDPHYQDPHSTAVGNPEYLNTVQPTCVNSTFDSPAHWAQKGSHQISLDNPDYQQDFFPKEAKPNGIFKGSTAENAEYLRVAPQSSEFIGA
inhibition at 20 µM [1] [%],Structure (SMILES),other results
-9.9,"C=C1C(O)CCC(C)(OC(=O)CCC)C2OC(C1OC(C)=O)C1C(=C)C(O)CC(C(C)C)C12 (stereo not drawn) [Compound 1, litophynol C]",melting point: 183 to 184 °C
-3.8,"C=C1CC[C@H](C(C)C)[C@@H]2[C@H]1[C@@H]1O[C@H]2[C@](C)(OC(=O)CCC)CC[C@H](O)C(=C)[C@H]1O [Compound 3, litophynol A]",–
-7.5,"C=C1CC[C@H](C(C)C)[C@@H]2[C@H]1[C@@H]1O[C@H]2[C@](C)(OC(=O)CCC)CC[C@H](OC)[C@@](C)(O)[C@H]1O [Compound 5, kremfielin B]",–
-4.9,"C=C1CC[C@H](C(C)C)[C@@H]2[C@H]1[C@H]1C[C@](C)(O)[C@@H](O)CC[C@@](C)(OC(=O)CCC)[C@@H]2O1 [Compound 6, litophynin E]",–

# Second part, the compound before the results:
Structure (SMILES),inhibition at 20 µM [1] [%],other results
"C=C1C(OO)CCC(C)(OC(=O)CCC)C2OC(C1OC(C)=O)C1C(=C)C(O)CC(C(C)C)C12 (stereo not drawn) [Compound 2, litophynol D]",-12.5,–
"C=C1CC[C@H](C(C)C)[C@@H]2[C@H]1[C@@H]1O[C@H]2[C@](C)(OC(=O)CCC)CC[C@H](O)C(=C)[C@H]1OC(=O)CCC [Compound 4, 8-butyryl-litophynol A]",-3.4,–
CCCC(=O)O[C@]1(C)CC[C@H](C(C)C)[C@@H]2[C@H]1[C@H]1C[C@](C)(O)[C@@H](O)CC[C@@](C)(OC(C)=O)[C@@H]2O1 [pachycladin A],–,IC50 [2]: 0.5 µM
C=C1CC[C@H](C(C)C)[C@@H]2[C@H]1[C@H]1C[C@](C)(O)[C@@H](O)CC[C@@](C)(O)[C@@H]2O1 [sclerophytin A],–,concentration showing significant cytotoxicity [3]: 1 ng/mL
